Results as given in patent US10221168B1, “Small-compound enhancers for functional O-mannosylation of alpha-dystroglycan, and uses thereof” (priority 2015, dated 2019).

system: FOG of α-DG on the cell surfaces; test: Cell-based HTS/HCS assay, IIH6 antibody as probe (EC1.5); settings: concentration of the compound required to enhance the FOG of α-DG by 50% over the controls; cell-based assays in vitro
Excerpt: Protein glycosylation is a multiple-step process that requires a large number of proteins in the secretory pathway of the cells. Thus we chose cell-based assay because our goal is to identify enhancer the FOG of α-DG on the cell surfaces. The assay system is HTS/HCS friendly and can adapt to various cell lines including myotubes as well as various readout methods including AlphaScreen, fluorescence density and HCS/fluorescence imaging. The standard operation protocol (SOP) for adhesion cells is described below and the FIG. 1 illustrates the assay process using myoblasts as the controls and screening cells and the IIH6 antibody as the probe. Other adhesion cells such CHO (Chinese hamster ovary) cell line can be implemented into this assay by simply removing the differentiation step.
Cell cultures: All cells are cultured at 37° C., 5% CO2, in appropriate media (F-12 for epithelial cells and DMEM for myoblasts) supplement with 10-20% fetal calf serum (FCS) and 1% antibiotics. […] The cells will be detached with trypsin EDTA and suspended in the cell culture media. The cells will be counted and seeded into the multiple-well plates as desired. Myotubes formation: When the myoblasts reach confluence, change the growth media to differential media (DEME with 2% horse serum) and incubate for 4-5 days.
The cells were fixed, permeablized, and then blocked with 10% BSA in PBS for 1 hour. […] After washing the cells with PBS for 2 times, the DAPI was used to stain the cells for 15 mins and wash 3 times with PBS. The images were captured with an inverted Olympus fluorescent microscope. For small compound localization experiment, the cells are incubated with the biotin conjugated compounds and then the cells were washed and incubated with streptavidin-Dye and then images will be captured to see the location of the compound-target-protein.
H, EC1.5<5 μM; M, EC1.5-20 μM; L, EC1.5 20-50 μM; VL, EC1.5>50 μM.

Row | SMILES | Activity (EC1.5)
1 | CCC(c1nnnn1Cc1ccc([N+](=O)[O-])s1)N1CCN(c2nc3cc(N)cc(F)c3s2)CC1 (stereo not shown) [Compound 58, 5-amino-7-fluoro-2-(4-(1-(1-(5-nitro-thiophen-2-ylmethyl)-1H-tetrazol-5-yl)propyl)piperazin-1-yl)benzothiazole] | H (EC1.5<5 μM)
2 | CCC(c1nnnn1Cc1ccc(F)s1)N1CCN(c2nc3cc(N)cc(F)c3s2)C(C)C1 (stereo not shown) [Compound 59, 5-amino-7-fluoro-2-(4-(1-(1-(5-fluoro-thiophen-2-ylmethyl)-1H-tetrazol-5-yl)propyl)-2-methyl-piperazin-1-yl)benzothiazole] | H (EC1.5<5 μM)
3 | CCC(c1nnnn1CCc1ccc(F)s1)N1CCN(c2nc3cc(N)cc(F)c3s2)C(C)C1 (stereo not shown) [Compound 60, 5-amino-7-fluoro-2-(4-(1-(1-(5-fluoro-thiophen-2-ylethyl)-1H-tetrazol-5-yl)propyl)-2-methyl-piperazin-1-yl)benzothiazole] | H (EC1.5<5 μM)
4 | CCC(c1nnnn1CCc1cccs1)N1CCN(C2Sc3c(F)cc(N)cc3N2N)CC1 (stereo not shown) [Compound 61, 5-amino-7-fluoro-3-amino-2-(4-(1-(1-(thiophen-2-ylethyl)-1H-tetrazol-5-yl)propyl)piperazin-1-yl)benzothiazole] | H (EC1.5<5 μM)
5 | CCC(c1nnnn1CCc1cccs1)N1CCN(C2Sc3c(F)cc(N)cc3N2[N+](=O)[O-])CC1 (stereo not shown) [Compound 62, 5-amino-7-fluoro-3-nitro-2-(4-(1-(1-(thiophen-2-ylethyl)-1H-tetrazol-5-yl)propyl)piperazin-1-yl)benzothiazole] | H (EC1.5<5 μM)
6 | CCC(c1nnnn1CCc1cccs1)N1CCN(C2Sc3c(F)cc(N)cc3N2C)CC1 (stereo not shown) [Compound 63, 5-amino-7-fluoro-3-methyl-2-(4-(1-(1-(thiophen-2-ylethyl)-1H-tetrazol-5-yl)propyl)piperazin-1-yl)benzothiazole] | H (EC1.5<5 μM)
7 | CCC(c1nnnn1CCc1cccs1)N1CCN(c2nc3cc(N)cc(F)c3s2)CC1[N+](=O)[O-] (stereo not shown) [Compound 64, 5-amino-7-fluoro-2-(4-(1-(1-(thiophen-2-ylethyl)-1H-tetrazol-5-yl)propyl)-3-nitro-piperazin-1-yl)benzothiazole] | H (EC1.5<5 μM)
8 | CCC(c1nnnn1CCc1cccs1)N1CCN(c2nc3cc(N)cc(F)c3s2)CC1[N+](=O)[O-] (stereo not shown) [Compound 65, 5-amino-7-fluoro-2-(4-(1-(1-(thiophen-2-ylethyl)-1H-tetrazol-5-yl)propyl)-5-nitro-piperazin-1-yl)benzothiazole] | H (EC1.5<5 μM)
9 | CCC(c1nnnn1CCc1cccs1)N1CCN(c2nc3cc(N)cc(F)c3s2)C(N)C1 (stereo not shown) [Compound 66, 5-amino-7-fluoro-2-(4-(1-(1-(thiophen-2-ylethyl)-1H-tetrazol-5-yl)propyl)-2-amino-piperazin-1-yl)benzothiazole] | H (EC1.5<5 μM)
10 | CCC(c1nnnn1CCc1cccs1)N1CCN(c2nc3cc(N)cc(F)c3s2)C([N+](=O)[O-])C1 (stereo not shown) [Compound 67, 5-amino-7-fluoro-2-(4-(1-(1-(thiophen-2-ylethyl)-1H.tetrazol-5-yl)propyl)-2-nitro-piperazin-1-yl)benzothiazole] | H (EC1.5<5 μM)
11 | CCC(c1nnnn1Cc1cccs1)C1CCCC(c2nc3cc(N)cc(F)c3s2)CC1 (stereo not shown) [Compound 68, 5-amino-7-fluoro-2-(4-(1-(1-(thiophen-2-ylmethyl)-1H-tetrazol-5-yl)propyl)cycloheptyl)benzothiazole] | H (EC1.5<5 μM)
12 | CCC(c1nnnn1Cc1cccs1)C1CCN(c2nc3cc(N)cc(F)c3s2)C1 (stereo not shown) [Compound 69, 5-amino-7-fluoro-2-(4-(1-(1-(thiophen-2-ylmethyl)-1H-tetrazol-5-yl)propyl)pyrrolidine-1-yl)benzothiazole] | H (EC1.5<5 μM)
13 | CCC(c1nnnn1Cc1cccs1)C1CCCN(c2nc3cc(N)cc(F)c3s2)CC1 (stereo not shown) [Compound 70, 5 amino-7-fluoro-2-(4-(1-(1-(thiophen-2-ylmethyl)-1H-tetrazol-5-yl)propyl)azepane-1-yl)benzothiazole] | H (EC1.5<5 μM)
